{
  "source": "patent US20050070607A1",
  "about": "“N-acetylcysteine compositions and methods for the treatment and prevention of cysteine/glutathione deficiency in diseases and conditions” (priority 2003, published 2005)",
  "origin": "cited, not measured here",
  "key": {"[1]": {"test_system": "patients who have already developed fulminant hepatic failure", "settings": "observational study, one hundred patients [138]"}, "[2]": {"test_system": "patients with unstable angina pectoris"}, "cardiac risk patients": {"test_system": "cardiac risk patients", "settings": "oxygen consumption, cardiac index, ST-depression during brief hyperoxia; 150 mg/kg IV; n 30; 30 min; Spies 1996[11]"}, "[3]": {"test_system": "otitis media with effusion", "settings": "instillation into one ear; recurrence, VT re-insertion, time until VT extrusion; 0.05 ml Mucomyst solution at 1, 3 and 7 days; n 75; 39 months; Ovesen 2000[53]"}, "Sjogren's syndrome": {"test_system": "Sjogren's syndrome", "settings": "ocular soreness, ocular irritability, halitosis, daytime thirst; 200 mg daily; n 26; 6 weeks; Walters 1986[56]"}, "Alzheimer's Disease": {"test_system": "Alzheimer's Disease", "settings": "MMSE, ADL and other psychometric tests; 50 mg/kg/day; n 47; 24 weeks; Adair 2001[60]"}, "[4]": {"settings": "compared with the stable cysteine disulfide"}, "[5]": {"test_system": "premature infants with chronic lung disease", "settings": "intratracheal NAC 5%; total airway resistance, cyanotic spells; n 22; 24 hours; Bibi 1992[203]"}, "[6]": {"test_system": "subjects classified as slow clearers", "settings": ".6 g oral daily, 60 days, Todisco 1985[38]"}, "[7]": {"test_system": "Hepatic transplant patients", "settings": "oxygen delivery and consumption, base deficit; 150 mg/kg for 15 min; 12.5 mg/kg for 4 h; n 50; 5 hours; Bromley 1995[19]"}, "[8]": {"test_system": "Stable angina and nitrate tolerance"}, "[9]": {"test_system": "Sickle Cell Disease/Vaso-occlusive disease", "settings": "2,400 mg daily, 12 months, Pace 2003[18]"}, "[10]": {"test_system": "non-insulin dependent diabetic (NIDDM) patients"}, "[11]": {"test_system": "influenza or influenza-like episodes", "settings": "frequency and severity of episodes, elderly and chronic non-respiratory disease; 1200 mg/day po; n 262; 6 months; De Flora 1997[46]"}, "[12]": {"test_system": "patients with high plasma Lp(a)", "settings": "plasma homocysteine; Lp(a) >0.3 g/l; 4000 mg daily po; n 11; 14 days; Wiklund 1996[277]"}, "[13]": {"test_system": "colonic crypt epithelium of human volunteers who previously had adenomatous polyps", "settings": "Colon cancer; proliferative index; 800 mg NAC daily po; n 64; 12 weeks; Estensen 1999[55]"}, "Hyperoxic ventilation": {"test_system": "Hyperoxic ventilation", "settings": "whole body oxygen uptake, oxygen extraction ratio, gastric intramucosal pH; IV over 15 min; n 38; 72 hours; Reinhart 1995[266]"}},
  "note": "Where two headings read alike, the source gives them in different places.",
  "data": [
    {"smiles": "CC(=O)N[C@@H](CS)C(=O)O", "note": "[NAC, N-acetylcysteine]", "values": [
      {"measurement": "Beneficial effects", "setting": "Exercise; frail geriatric patients, knee extensor strength, plasma TNF, 1800 mg daily, n 44, 6 weeks, Hauer 2003[59]", "value": "Beneficial"},
      {"measurement": "Beneficial effects", "setting": "Exercise; intense, intermittent exercise, reduced and oxidized GSH, 125 mg/kg/hr for 15 min, then 25 mg/kg/hr, n 8, Medved 2003[58]", "value": "Beneficial"},
      {"measurement": "Beneficial effects", "setting": "Exercise; prolonged submaximal exercise, well trained individuals, performance, 125 mg/kg/hr for 15 min, then 25 mg/kg/20 min, Medved 2004[286]", "value": "Beneficial"},
      {"measurement": "Beneficial effects", "setting": "Smoking; formation of lipophilic-DNA adducts, 1200 mg/day po, n 41, 6 months, VanShooten 2002[35]", "value": "Beneficial"},
      {"measurement": "Beneficial effects", "setting": "Smoking; mucus clearance, 600 mg/day, n 12, 30 days, Olivieri 1985[36]", "value": "Beneficial"},
      {"measurement": "Beneficial effects", "setting": "COPD subjects; hydrogen peroxide formation in the airways, oral 600 mg fizzy, n 44, 12 months, Kasielski 2001[210]", "value": "Beneficial"},
      {"measurement": "Beneficial effects", "setting": "COPD subjects; mucus viscosity, effective cough, clinical symptoms, 600 mg, n 60, 10 days, Verstraeten 1979[39]", "value": "Beneficial"},
      {"measurement": "Beneficial effects", "setting": "COPD subjects; quadriceps endurance, exercise induced oxidative stress, 1800 mg for 4 days and 600 mg the day of the test, n 9, Koechlin 2004[278]", "value": "Beneficial"},
      {"measurement": "survival", "setting": "[1]", "value": "significantly increased survival"},
      {"measurement": "Hearing loss and cochlear damage from aminoglycoside antibiotics and cisplatin", "setting": "cochlea; animal models [245-247]", "value": "greatly reduced"},
      {"measurement": "permanent cochlear damage due to acute acoustic overexposure", "setting": "cochlea; animal models, systemic administration [246,248]", "value": "almost completely prevented"},
      {"measurement": "Beneficial effects", "setting": "[2]; NAC + nitroglycerin, incidence of acute myocardial infarction, 5 g IV, n 46, 6 hours, Horowitz 1988[175,176]", "value": "Beneficial"},
      {"measurement": "Beneficial effects", "setting": "[2]; nitroglycerin + NAC with conventional therapy, outcome events, 600 mg po, n 200, 4 months, Ardissino 1997[177]", "value": "Beneficial"},
      {"measurement": "Beneficial effects", "setting": "cardiac risk patients", "value": "Beneficial"},
      {"measurement": "Beneficial effects", "setting": "Bronchitis; General Health Questionnaire score, mild chronic bronchitis, 1200 mg/day po, n 153, 22 weeks, Hansen 1994[34]", "value": "Beneficial"},
      {"measurement": "Beneficial effects", "setting": "Bronchitis; days incapacitated, 600 mg/day po, n 526, 6 months, Parr and Huitson 1987[31]", "value": "Beneficial"},
      {"measurement": "Beneficial effects", "setting": "Bronchitis; difficulty in expectoration and cough severity, 600 mg/day po, n 155, 3 months, Jackson 1984[30]", "value": "Beneficial"},
      {"measurement": "Beneficial effects", "setting": "Bronchitis; evening peak flows after NAC pre-treatment, 1200 mg/day po, n 37, 22 weeks, Evald 1989[33]", "value": "Beneficial"},
      {"measurement": "Beneficial effects", "setting": "Bronchitis; exacerbation rate, 400 mg/day po, n 259, 6 months, Boman 1983[29]", "value": "Beneficial"},
      {"measurement": "Beneficial effects", "setting": "Bronchitis; frequency of exacerbations, 600 mg/day, 3 days/wk, po, n 69, 6 months, Grassi and Morandini 1976[24]", "value": "Beneficial"},
      {"measurement": "Beneficial effects", "setting": "Bronchitis; sick-leave days caused by exacerbations, 600 mg/day po, n 116, 6 months, Rasmussen and Glennow 1988[32]", "value": "Beneficial"},
      {"measurement": "Beneficial effects", "setting": "Bronchitis; sputum consistency, expectoration, peak expiratory flow rate, 600 mg/day po, n 29, 4 weeks, Aylward 1980[25]", "value": "Beneficial"},
      {"measurement": "Beneficial effects", "setting": "Bronchitis; sputum thickness, expectoration, exacerbations, 400 mg/day po, n 744, 6 months, Grassi 1980, Ferrari 1980[27,28]", "value": "Beneficial"},
      {"measurement": "Beneficial effects", "setting": "Bronchitis; sputum volume and viscosity, acute and chronic bronchitis, 600 mg/day po, n 215, 10 days, Brocard 1980[26]", "value": "Beneficial"},
      {"measurement": "Beneficial effects", "setting": "[3]", "value": "Beneficial"},
      {"measurement": "Beneficial effects", "setting": "Sjogren's syndrome", "value": "Beneficial"},
      {"measurement": "Beneficial effects", "setting": "Alzheimer's Disease", "value": "Beneficial"},
      {"measurement": "solubility relative to cystine", "setting": "[4]", "value": "much more soluble"},
      {"measurement": "Beneficial effects", "setting": "[5]", "value": "Adverse"},
      {"measurement": "side effect reported for NAC treatment for inflammatory conditions", "setting": "not found clinically significant [106]", "value": "mild to moderate anticoagulation"},
      {"measurement": "adverse responses to intravenous NAC administration", "setting": "several reports [163,249-256]", "value": "anaphylactoid and allergic responses"},
      {"measurement": "Beneficial effects", "setting": "[6]; n 161", "value": "Beneficial"},
      {"measurement": "improvement in mucociliary clearance", "setting": "[6]; slow clearers", "value": "a 35% improvement in mucusalary"},
      {"measurement": "Treatment effect", "setting": "[7]", "value": "Beneficial"},
      {"measurement": "Beneficial effects", "setting": "[8]; NAC + ISDN infusion, tolerance to antianginal effects, 2 g IV bolus, n 10, 30 hours, Boesgaard 1992[14]", "value": "Beneficial"},
      {"measurement": "Beneficial effects", "setting": "[8]; NAC + isosorbide dinitrate (ISDN), ST segment depression, 2400 mg daily po, n 7, 8 days, Boesgaard 1991[13]", "value": "Beneficial"},
      {"measurement": "Beneficial effects", "setting": "[8]; NAC + isosorbide-5-mononitrate, total exercise time, 4800 mg po, n 10, 24 hours, Svendsen 1989[12]", "value": "Beneficial"},
      {"measurement": "apoptosis induction by cardioplegic arrest in left ventricular cardiac myocytes", "setting": "Cardiac bypass; 100 mg/kg followed by infusion 20 mg/kg, n 36, Fischer 2004[270]", "value": "can effectively ne prevented by NAC."},
      {"measurement": "Beneficial effects", "setting": "Cardiac bypass; oxidative burst response of peripheral neutrophils, 100 mg/kg bolus then 20 mg/kg continuous IV, n 12, 24 hours, Andersen 1995[16]", "value": "Beneficial"},
      {"measurement": "vaso-occlusive episodes", "setting": "[9]; decreased from 0.03", "value": "occlusive episodes (0.03 to 0.006 episodes episodes per person-days"},
      {"measurement": "Beneficial effects", "setting": "[9]; dense cell formation, glutathione levels, vaso-occlusive episodes, n 21", "value": "Beneficial"},
      {"measurement": "Beneficial effects", "setting": "acute lung injury; RBC GSH, days of acute lung injury, cardiac index, NAC 70 mg/kg q 8 hr IV, OTZ 63 mg/kg q 8 hr IV, n 48, 10 days, Bernard 1997[222]", "value": "Beneficial"},
      {"measurement": "Beneficial effects", "setting": "acute lung injury; elastase activity, pretreatment 72 mg/kg bolus, 72 mg/kg over 12 hours IV, n 18, 12 hours, De Backer 1996[214]", "value": "Beneficial"},
      {"measurement": "Beneficial effects", "setting": "acute lung injury; mild-to-moderate ALI, systemic oxygenation, need for ventilatory support, 40 mg/kg/day IV, n 61, 3 days, Suter 1994[211]", "value": "Beneficial"},
      {"measurement": "Beneficial effects", "setting": "[10]; erythrocyte GSH, GSH:GSSG ratio, plasma soluble VCAM-1, 1200 mg/day po, n 15, 1 month, De Mattia 1998[21]", "value": "Beneficial"},
      {"measurement": "erythrocyte GSH concentration and rate of its synthesis", "setting": "[10]; type 2 diabetics, two weeks of dietary supplementation, Jahoor ongoing study [197]", "value": "significant increases"},
      {"measurement": "Beneficial effects", "setting": "[11]", "value": "Beneficial"},
      {"measurement": "Beneficial effects", "setting": "[12]", "value": "Beneficial"},
      {"measurement": "time for elevated serum lactate levels to return to normal vs placebo", "setting": "severe malaria; 300 mg/kg intravenously over 20 hours, 30 subjects [51]", "value": "twice as quickly"},
      {"measurement": "Beneficial effects", "setting": "severe malaria; quinine-treated malaria, serum lactate, 300 mg/kg IV, n 30, 20 hours, Watt 2002[51]", "value": "Beneficial"},
      {"measurement": "Treatment effect", "setting": "[13]", "value": "Beneficial"},
      {"measurement": "Treatment effect", "setting": "Hyperoxic ventilation", "value": "Beneficial"}
    ]}
  ]
}
